Values of other authors as cited in publication PMC12281572.
Several values for one entry are separate records, joined by “and”; a condition that tells them apart may be missing. Equal values may be shown once.

Test: FTIR, 4-fluorophenol as donor (the pK_BHX database, per the paper)
Settings: CCl4; 25 C

SMILES | pK_BHX (log10 Kf of the 1:1 H-bond complex with 4-fluorophenol, by FTIR)
C1CCSCC1 | 0.23 log units
Clc1ccc(N=CNc2ccc(Cl)cc2)cc1 | 1.63 log units
CN1CN(C)C1=O | 2.46 log units
[O-][n+]1ccccc1 | 2.72 log units
C(=Nc1ccccc1)Nc1ccccc1 | 2.13 log units
CC(=O)C12CC3CC(CC(C3)C1)C2 | 1.3 log units
c1ccc(C2CCCCC2)cc1 | -0.32 log units
C#CCN(C)C | 1.6 log units
CN(C)c1ccc(C#N)cc1 | 1.23 log units
CNC(C)=S | 1.14 log units
Cc1ccc(C)cc1 | -0.29 log units
c1ccc(Cc2ccccc2)cc1 | -0.41 log units
CCN(C(=O)N(CC)c1ccccc1)c1ccccc1 | 2.16 log units
Oc1ccc(F)cc1 | -0.12 log units
Brc1cccnc1 | 1.31 log units
Cc1cc[n+]([O-])cc1 | 3.12 log units
CCOC(=O)C1CC1 | 1.12 log units
CCOC(=O)N(c1ccccc1)c1ccccc1 | 1.45 log units
NCc1ccccc1 | 1.84 log units
C=Cn1ccnc1 | 2.35 log units
CCSC(=O)OC | 0.73 log units
CN(C)C(=O)c1ccc(Br)cc1 | 2.07 log units
N#CN1CCCCC1 | 1.58 log units
CO | 0.82 log units

SMILES | pK_BHX (log10 Kf of the 1:1 H-bond complex with 4-fluorophenol, by FTIR)
CC1COC(=O)O1 (stereo not drawn) | 1.22 log units
c1cscn1 | 1.37 log units
Brc1ccc(N=C(Nc2ccc(Br)cc2)c2ccccc2)cc1 | 0.87 log units
COC(C)=O | 1.0 log units
CC(C)N(C#N)C(C)C | 1.74 log units
O=C1CCCCCCCCCCC1 | 1.23 log units
CC(=NC(=S)N(C)C)N(C)C | 2.06 log units
Cc1ccccc1C#N | 0.83 log units
O=CN1CCOCC1 | 1.93 log units
N#Cc1ccccc1Br | 0.71 log units
CN(C)C=CC#N | 1.7 log units
C=COCC | 0.1 log units
Cc1ccc(N=CN(C)C)cc1 | 2.07 log units
O=[N+]([O-])c1cc[n+]([O-])cc1 | 1.05 log units
C1CNC1 | 2.59 log units
COC=O | 0.65 log units
CN(C)C(=S)N(C)C | 1.35 log units
CN(C)S(C)(=O)=O | 1.0 log units
CC1CCN(c2ccncc2)CC1 | 2.68 log units
CCN(CC)CC(F)(F)F | 0.23 log units
N#CC1CCCC1 | 0.88 log units
O=c1ccocc1 | 2.03 log units
O=S1(=O)CCCC1 | 1.17 log units
C=CCNC | 2.0 log units

SMILES | pK_BHX (log10 Kf of the 1:1 H-bond complex with 4-fluorophenol, by FTIR)
CCOC(=O)c1ccc(C#N)cc1 | 0.66 log units and 0.53 log units
CN(C)C(=O)c1ccccc1 | 2.23 log units
CCOC(C)=O | 1.07 log units
Nc1cccc(F)c1 | 0.2 log units
CSc1ccccc1 | -0.32 log units and -0.48 log units
Cc1ccccn1 | 2.03 log units
C1CCCNCC1 | 2.24 log units
CC(C)(C)I | -0.33 log units
CCc1cccnc1 | 2.01 log units
C1=COCCC1 | 0.41 log units
NCc1cccc([N+](=O)[O-])c1 | 1.26 log units
O=[N+]([O-])c1cccc(N=C(Nc2ccccc2)c2ccccc2)c1 | 0.86 log units
COc1cccc(CN=CN(C)C)c1 | 2.4 log units
N#Cc1ccc(F)cc1 | 0.72 log units
O=C1CCCCO1 | 1.57 log units
Cc1ccc(S(=O)c2ccc(C)cc2)cc1 | 2.21 log units
CCCCS(=O)CCCC | 2.65 log units
O=[N+]([O-])c1ccc(C23CC4CC(CC(C4)C2)C3)cc1 | 0.42 log units
COc1ccccc1C=O | 1.11 log units
c1cc(N2CCCC2)ccn1 | 2.93 log units
C=Cc1ccccn1 | 1.65 log units
CC(C)(C)O | 1.14 log units
CCNC | 2.25 log units
c1cnoc1 | 0.81 log units

SMILES | pK_BHX (log10 Kf of the 1:1 H-bond complex with 4-fluorophenol, by FTIR)
CC1(C)CC(=O)C=C(Cl)C1 | 1.21 log units
Fc1nc(F)c(F)c(F)c1F | -0.49 log units
O=C1c2ccccc2-c2ccccc21 | 1.09 log units
CC(=Nc1ccc(C)cc1)N(C)c1ccccc1 | 1.75 log units
CN1CCCC1 | 2.19 log units
CC(=Nc1ccc(C)cc1)N(C)c1ccc(C)cc1 | 1.82 log units
CC(C)CN=CN(C)C | 2.52 log units
Cc1cnc(C)cn1 | 1.29 log units
NCc1cccc(Cl)c1 | 1.55 log units
CC(=O)c1ccc(C)cc1 | 1.24 log units
c1ccncc1 | 1.86 log units
CNc1ccc(Cl)cc1 | 0.05 log units
c1ccc(N2CCCC2)cc1 | 0.16 log units
COc1ccc(Cl)cc1 | -0.25 log units
CCCC(=O)c1ccccc1 | 1.04 log units
CN1CCCC1=O | 2.38 log units
COc1cccc(C#N)c1 | 0.8 log units
C1OCOCO1 | 0.02 log units
c1ccc2c(c1)CCCN2 | 0.7 log units
CC1=NCCC1 | 2.59 log units
CC(C)CN(C(C)C)C(C)C | 0.3 log units
NCCCN | 2.31 log units
CC(=O)c1ccc(C(C)=O)cc1 | 0.92 log units
CCCCCCCCN(CCCCCCCC)CCCCCCCC | 1.57 log units

SMILES | pK_BHX (log10 Kf of the 1:1 H-bond complex with 4-fluorophenol, by FTIR)
CCN(CC)C(=S)N(C)C | 1.29 log units
CN(C)C=NCc1ccccc1 | 2.35 log units
CCN(CC)c1ccc(C(C)=O)cc1 | 1.82 log units
CCNC(C)=O | 2.29 log units
CCc1ccc(C(C)=O)cc1 | 1.25 log units
Cc1ccc2c(c1)CN1CN2Cc2cc(C)ccc21 | -0.26 log units
BrC1CC1 | -0.47 log units
CC(=S)N(C)C | 1.22 log units
CCSCC | 0.25 log units
c1ccc(CNCc2ccccc2)cc1 | 1.34 log units
CN(C)C=NCc1ccc(Cl)cc1 | 2.12 log units
CC(C)=O | 1.18 log units
COc1cccc(C)c1 | 0.05 log units
CC(C)c1cc(C(C)C)cc(C(C)C)c1 | -0.18 log units
c1ccc2c(c1)cnc1ccccc12 | 1.87 log units
N#Cc1c(F)c(F)c(F)c(F)c1F | 0.01 log units
CCCCSC | 0.17 log units
O=c1cccccc1 | 1.97 log units
CCS | -0.16 log units
CCCCCC#N | 0.89 log units
O=S(c1ccccc1)c1ccccc1 | 2.04 log units
